Here are results for four molecules from patent EP4509145A1, “PSMA THERANOSTIC COMPOUNDS ASSEMBLED WITH TETRAZINE-TRANS-CYCLOOCTENE LIGATION” (University of Copenhagen, priority 2023, dated 2025).

Where two headings read alike, the source gives them in different places.

In one data set the test system is LNCaP cells. Put plainly: internalization assay (surface binding and internalization, with and without 2-PMPA block). Type of data set: cell-based. As to conditions: for Cell surface / Internalized: n = 4; for Cell surface blocked / Internalized blocked: with 2-PMPA 500 µM/well. As for the experimental part:
Poly-L-Lysine (300 µL of a 0.01% w/v in H2O) is added to each well of a 24-well plate (Greiner Bio). The plate is left at room temperature for 20-30 minutes. Afterwards, the poly-L-lysine solution is removed, and the wells washed with 500 µL of PBS. Afterwards, 1 mL of LNCaP cells suspension is placed in each well to obtain 10^5 cells/well. The 24-well plates are left in the incubator overnight until the start of the internalisation experiment. Subsequently, the previously plated cells were incubated at 37 °C with the selected ^18 F-labelled PSMA derivative in 250 µL growth medium for 45 min (c = 32 nM). For the determination of specific uptake, 2-PMPA was added into half of the wells in an excess concentration of 500 µM/well. After incubation, cellular uptake was interrupted by removing the medium and washing the cells with ice-cold PBS (3 × 1 mL). The surface bound radioactivity was removed by washing with 50 mM glycine (pH 2.8, 2 × 500 µL). Finally, the internalized fraction was determined by lysis of the cells with 0.3 M NaOH (1 × 500 µL). Fractions collected from the surface bound activity and lysates were collected and measured in a gamma counter. All counts were normalized to the starting activity and specific surface binding as well as specific internalization were determined by subtracting the non-specific binding obtained from the wells treated with 2-PMPA. Results were calculated and expressed as %AA/10^5 cells (% applied activity/105 cells, n = 4). [^68Ga]-PSMA617 was selected as a reference to compare internalization values. The experiment was conducted two times on different compounds. PSMA-617 was used as a reference and internal control for both experiments. […] The higher internalization could have a big impact on the therapeutic effect of such molecules.

The nature of data set [1]: in vivo PET imaging in rats of [^18F]-labeled PSMA derivatives. The settings on record: healthy rats, i.v., 90-min PET acquisition (Figure 15). As for the experimental part: Long-Evans female rats weighing 200 - 300 g (Charles River, Calco, Italy), were housed in a cage of 2-3 rats per cage and kept in a climate-controlled facility with a 12-hr light/dark cycle. The cages had environmental enrichment (nest box, biting stick). All rats were fed ad libitum with commercial breeding diet (1310 FORTI-Avlsfoder, Brogaarden, Altromin International) and had free access to water. All the experiments were performed in accordance with the European Commission's Directive 2010/63/EU, FELASA and ARRIVE guidelines for animal research and, with approval from The Danish Council for Animal Ethics (license numbers 2017-15-0201-01283 and 2017-15-0201-01375) together with the Department of Experimental Medicine, University of Copenhagen.
The scans were performed on the Siemens HRRT (High-Resolution Research Tomography) (CPS Innovations/Siemens, Malvern, PA, USA). On the day of experiment, the rats were weighed and then transported to the scanner at least 2 h before the scan. Anesthesia was induced using 3% isoflurane in oxygen flow. All rats were placed in a 2 × 2 custom made rat holder, enabling simultaneous scanning of four rats 17-19. While in the custom-made rat holder, the rats were kept under anesthesia with a constant flow of isoflurane (-2% isoflurane in oxygen). […]

The target in the next data set is T1, PSMA (Rattus norvegicus, UniProt P70627).
T1 construct: tissue Taconic Biosciences (rats); host or cells: rat brain, sagittal slices containing midbrain
The data set can be described thus: in vitro autoradiography competition assay on rat brain slices against [^111In]In-PSMA-617. Type of data set: binding. As for the experimental part:
This method provided [^111In]-PSMA-617 in >95% radiochemical yield, as determined by reverse-phase HPLC.
Rat brain slices were obtained from female Sprague-Dawley rats (weight~250g; Taconic Biosciences). The rats were sacrificed by decapitation, brains were extracted, frozen at -80 °C and stored at the same temperature. To prepare slices for autoradiography, brains were cut into halves along the sagittal symmetry plane. Each half was mounted, lateral side up, on the cryostat sample holder pretreated by Tissue-Tek OCT compound and fixed by freezing in the cryostat. […]
For competition assay, the slides were incubated with 2 nM [^111In]In-PSMA-617 and increasing concentrations (0.1-30 nM) of investigated PSMA derivatives for the same amount of time in the same assay buffer. Non-specific binding was determined by adding 5 µM 2-(phosphonomethyl)pentanedioic acid (PMPA) to [^111In]In-PSMA-617 solutions. […]
The screens were then read by a Cyclone Plus storage phosphor system (Packard Instruments Co). Quantification of readings was done with Optiquant software (version 3.00, Packard Instruments Co). Namely, elliptic regions of interest (ROIs) encompassing the midbrain and cerebellar nuclei were drawn inside the brain slice images, while circular ROIs were drawn around calibration curve spots, and average exposure was calculated for both ROI categories. […]

[2] abbreviates: first experiment, LNCaP, 37 °C, 45 min, c = 32 nM.
The mark [3] stands for this setting: second experiment ([^68Ga] compounds), LNCaP, 37 °C, 45 min, c = 32 nM.
Setting [4] is: second experiment ([^68Ga] compounds).

T1 sequence (P70627 whole entry): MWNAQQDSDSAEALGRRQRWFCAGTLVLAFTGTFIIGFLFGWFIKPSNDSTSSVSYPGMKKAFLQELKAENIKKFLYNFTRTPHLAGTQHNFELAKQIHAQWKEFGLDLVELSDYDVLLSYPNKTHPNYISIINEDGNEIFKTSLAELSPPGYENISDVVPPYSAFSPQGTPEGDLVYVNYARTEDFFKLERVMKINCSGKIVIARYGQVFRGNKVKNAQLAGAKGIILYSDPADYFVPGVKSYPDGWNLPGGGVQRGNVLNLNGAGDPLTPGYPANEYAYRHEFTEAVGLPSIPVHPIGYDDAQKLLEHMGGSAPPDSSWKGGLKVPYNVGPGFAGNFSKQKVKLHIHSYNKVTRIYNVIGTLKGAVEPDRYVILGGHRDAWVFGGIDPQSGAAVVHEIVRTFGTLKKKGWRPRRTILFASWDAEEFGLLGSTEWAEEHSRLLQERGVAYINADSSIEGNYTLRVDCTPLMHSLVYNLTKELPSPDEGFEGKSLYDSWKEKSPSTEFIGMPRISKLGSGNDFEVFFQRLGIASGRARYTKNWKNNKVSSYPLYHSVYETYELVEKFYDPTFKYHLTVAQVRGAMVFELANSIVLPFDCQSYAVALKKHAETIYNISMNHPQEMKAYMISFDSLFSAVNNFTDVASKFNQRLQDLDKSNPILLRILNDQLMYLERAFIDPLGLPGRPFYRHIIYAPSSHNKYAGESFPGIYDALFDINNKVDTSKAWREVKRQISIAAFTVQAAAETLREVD

In the data set on LNCaP cells (setting [2]), `O=C(O)CC[C@H](NC(=O)N[C@@H](CCCCNC(=O)[C@H](Cc1ccc2ccccc2c1)NC(=O)[C@H]1CC[C@H](CNC(=O)CN2C(=O)c3cc4nc5c(nc4cc3C2=O)CCc2c(cnnc2-c2ccc(OCCF)cc2)CC5)CC1)C(=O)O)C(=O)O` [[^18F]16, PSMA-NH-T4CO-FTz] displayed a Cell surface of 0.36 ± 0.03 %AA/10^5 cells, an Internalized of 1.98 ±0.17 %AA/10^5 cells, a Cell surface blocked of 0.09 ± 0.01 %AA/10^5 cells and an Internalized blocked of 0.78 ± 0.11 %AA/10^5 cells. The excretion route result in data set [1] is reported as “excreted mainly through the liver”.

Turning to `N=C(N)NCCCC(NC(=O)CN1C(=O)c2cc3nc4c(nc3cc2C1=O)CCc1c(cnnc1-c1ccc(OCC[18F])cc1)CC4)C(=O)NC(CCC(=O)O)C(=O)NC(CCCNC(=N)N)C(=O)NC(CCC(=O)O)C(=O)NC(CCCNC(=N)N)C(=O)NC(CCC(=O)O)C(=O)NCC1CCC(C(=O)NC(Cc2ccc3ccccc3c2)C(=O)NCCCCC(NC(=O)NC(CCC(=O)O)C(=O)O)C(=O)O)CC1` (centres unmarked) [[^18F]30, PSMA-NH-AAAAAA-T4CO-FTz], in the data set with LNCaP cells (setting [2]), the Cell surface is recorded as 0.64 ± 0.10 %AA/10^5 cells, the Internalized amounted to 0.54 ± 0.06 %AA/10^5 cells, the Cell surface blocked stood at 0.08 ± 0.01 %AA/10^5 cells and the Internalized blocked was found to be 0.07 ± 0.01 %AA/10^5 cells. For the same molecule, the Ki at PSMA (competition with 2 nM [^111In]In-PSMA-617, 1.5 h, Ki from IC50 by Cheng-Prusoff, mean ± SD, number of determinations in parentheses, read-out: Affinity (Ki)) was found to be 0.0031 ± 0.00028 µM.

In the data set on LNCaP cells (setting [2]), `N=C(N)NCCCC(NC(=O)CN1C(=O)c2cc3nc4c(nc3cc2C1=O)CCc1c(cnnc1-c1ccc(OCC[18F])cc1)CC4)C(=O)NC(CCCNC(=N)N)C(=O)NC(CCCNC(=N)N)C(=O)NCC1CCC(C(=O)NC(Cc2ccc3ccccc3c2)C(=O)NCCCCC(NC(=O)NC(CCC(=O)O)C(=O)O)C(=O)O)CC1` (centres unmarked) [[^18F]40, PSMA-3Arg-NH-T4CO-FTz] gave a Cell surface of 5.15 ± 0.87 %AA/10^5 cells, an Internalized of 4.53 ± 0.55 %AA/10^5 cells, a Cell surface blocked of 4.70 ± 1.05 %AA/10^5 cells and an Internalized blocked of 4.10 ± 0.65 %AA/10^5 cells. In addition, the Ki on PSMA (read-out: Affinity (Ki), competition with 2 nM [^111In]In-PSMA-617, 1.5 h, Ki from IC50 by Cheng-Prusoff, mean ± SD, number of determinations in parentheses) amounted to 0.0475 µM.

In the data set with LNCaP cells (setting [2]), `O=C(O)CC[C@H](NC(=O)N[C@@H](CCCCNC(=O)[C@H](Cc1ccc2ccccc2c1)NC(=O)[C@H]1CC[C@H](CNC(=O)CN2CCN(CC(=O)O)CCN(CC(=O)O)CCN(CC(=O)O)CC2)CC1)C(=O)O)C(=O)O` [[^68Ga]-PSMA-617, vipivotide tetraxetan, metal not drawn, reference compound] returned a Cell surface of 0.36 ± 0.03 %AA/10^5 cells, an Internalized of 0.27± 002 %AA/10^5 cells, a Cell surface blocked of 0.03± 0.01 %AA/10^5 cells and an Internalized blocked of 0.03 ± 0.01 %AA/10^5 cells. In the data set on LNCaP cells (setting [3]), this molecule yielded a Cell surface of 0.36 ± 0.03 %AA/10^5 cells and an Internalized of 0.13± 001 %AA/10^5 cells. In the data set with LNCaP cells (setting [4]), this molecule came in with a Cell surface blocked of 0.03± 0.01 %AA/10^5 cells and an Internalized blocked of 0.02 ± 0.01 %AA/10^5 cells.
